From article PMC9571063 (Molecules, 2022)
Values joined by “and” are separate entries in the source; they are usually repeats but may differ in a detail not shown here. Equal entries are not always repeated. Structures can show the parent of a compound that is named as a salt. Where two headings read alike, the source gives them in different places.

Columns and labels:
[1] = cytotoxic assay, nuclei count (Hoechst, HCS); type: cell-based; details: human, HuH7 cells (hepatocellular carcinoma); 48 h treatment; read-out: Cytotoxic studies IC50 HuH7
HsCLK1 = molecular target: T1, HsCLK1 (Homo sapiens, UniProt P49759); assay: ADP-Glo kinase assay; type: biochemical
T1 construct: host or cells: Sf9 insect cells (baculovirus)

Hs_HASPIN = molecular target: T2, Hs_HASPIN (Homo sapiens, UniProt Q8TF76); assay: ADP-Glo kinase assay, primary screen; type: biochemical; details: n=2, read-out: % of residual activity Hs_HASPIN
T2 construct: host or cells: bacteria
T2 sequence (Q8TF76 1-798): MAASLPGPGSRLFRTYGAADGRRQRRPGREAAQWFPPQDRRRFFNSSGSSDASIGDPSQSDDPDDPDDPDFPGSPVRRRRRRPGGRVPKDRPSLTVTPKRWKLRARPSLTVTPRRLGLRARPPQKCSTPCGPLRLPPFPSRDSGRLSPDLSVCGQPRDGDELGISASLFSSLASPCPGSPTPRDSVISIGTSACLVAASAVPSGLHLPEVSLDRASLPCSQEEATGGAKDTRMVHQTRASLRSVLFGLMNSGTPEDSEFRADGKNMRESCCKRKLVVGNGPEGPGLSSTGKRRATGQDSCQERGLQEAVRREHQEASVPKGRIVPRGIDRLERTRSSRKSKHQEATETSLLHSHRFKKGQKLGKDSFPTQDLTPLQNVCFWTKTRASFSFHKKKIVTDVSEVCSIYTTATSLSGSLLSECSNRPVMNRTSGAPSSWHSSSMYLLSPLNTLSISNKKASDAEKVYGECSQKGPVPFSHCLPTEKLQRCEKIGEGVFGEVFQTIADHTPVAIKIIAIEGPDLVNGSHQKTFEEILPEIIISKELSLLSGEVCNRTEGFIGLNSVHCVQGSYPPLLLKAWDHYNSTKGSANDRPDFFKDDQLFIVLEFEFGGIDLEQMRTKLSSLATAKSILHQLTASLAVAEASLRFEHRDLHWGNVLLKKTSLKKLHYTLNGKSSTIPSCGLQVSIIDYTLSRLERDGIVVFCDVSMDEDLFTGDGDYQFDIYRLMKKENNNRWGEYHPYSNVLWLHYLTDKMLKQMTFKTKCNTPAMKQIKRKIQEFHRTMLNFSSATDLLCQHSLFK

Hs_CDK5/p25 = molecular target: T3, Hs_CDK5/p25 (Homo sapiens, UniProt Q00535); assay: ADP-Glo kinase assay, primary screen; type: biochemical; details: n=2, read-out: % of residual activity Hs_CDK5/p25
T3 construct: host or cells: bacteria

Hs_CDK9/CyclinT = molecular target: T4, Hs_CDK9/CyclinT (Homo sapiens, UniProt P50750); assay: ADP-Glo kinase assay, primary screen; type: biochemical; details: n=2, read-out: % of residual activity Hs_CDK9/CyclinT
T4 construct: host or cells: Sf9 insect cells (baculovirus)

[2] = cytotoxic assay, nuclei count (Hoechst, HCS); type: cell-based; details: human, Caco-2 cells (colorectal adenocarcinoma); 48 h treatment; read-out: Cytotoxic studies IC50 Caco2
Hs_GSK3β = molecular target: T5, Hs_GSK3β (Homo sapiens, UniProt P49841); assay: ADP-Glo kinase assay, primary screen; type: biochemical; details: n=2, read-out: % of residual activity Hs_GSK3β
T5 construct: host or cells: Sf9 insect cells (baculovirus)

Rn_DYRK1A = molecular target: T6, Rn_DYRK1A (Rattus norvegicus, UniProt Q63470); assay: ADP-Glo kinase assay, primary screen; type: biochemical; details: n=2, read-out: % of residual activity Rn_DYRK1A
T6 construct: host or cells: bacteria

Hs_PIM1 = molecular target: T7, Hs_PIM1 (Homo sapiens, UniProt P11309); assay: ADP-Glo kinase assay, primary screen; type: biochemical; details: n=2, read-out: % of residual activity Hs_PIM1
T7 construct: host or cells: Sf9 insect cells (baculovirus)

Hs_CK1ε = molecular target: T8, Hs_CK1ε (Homo sapiens, UniProt P49674); assay: ADP-Glo kinase assay, primary screen; type: biochemical; details: n=2, read-out: % of residual activity Hs_CK1ε
T8 construct: host or cells: Sf9 insect cells (baculovirus)

MmCLK1 = molecular target: T9, MmCLK1 (Mus musculus, UniProt P22518); assay: ADP-Glo kinase assay; type: biochemical; details: for remaining activity at 1 µM / remaining activity at 10 µM: n=2, read-out: % of residual activity Mm_CLK1
T9 construct: host or cells: bacteria

[3] = cytotoxic assay, nuclei count (Hoechst, HCS); type: cell-based; details: human, 48 h treatment
HsDYRK1A = molecular target: T10, HsDYRK1A (Homo sapiens, UniProt Q13627); assay: ADP-Glo kinase assay; type: biochemical; details: for remaining activity at 1 µM / remaining activity at 10 µM: n=2, read-out: % of residual activity Hs_DYRK1A; for IC50: 10 µM ATP, duplicate
T10 construct: host or cells: Sf9 insect cells (baculovirus)

[4] = 10 µM ATP, duplicate, read-out: IC50 HsCLK1
[5] = mouse CLK1 orthologue, read-out: IC50 MmCLK1
[6] = HCT116 cells (colorectal adenocarcinoma), read-out: Cytotoxic studies IC50 HCT116
[7] = MDA-MB-468 cells (breast carcinoma), read-out: Cytotoxic studies IC50 MDA-MB-468

T5 sequence (P49841 whole entry): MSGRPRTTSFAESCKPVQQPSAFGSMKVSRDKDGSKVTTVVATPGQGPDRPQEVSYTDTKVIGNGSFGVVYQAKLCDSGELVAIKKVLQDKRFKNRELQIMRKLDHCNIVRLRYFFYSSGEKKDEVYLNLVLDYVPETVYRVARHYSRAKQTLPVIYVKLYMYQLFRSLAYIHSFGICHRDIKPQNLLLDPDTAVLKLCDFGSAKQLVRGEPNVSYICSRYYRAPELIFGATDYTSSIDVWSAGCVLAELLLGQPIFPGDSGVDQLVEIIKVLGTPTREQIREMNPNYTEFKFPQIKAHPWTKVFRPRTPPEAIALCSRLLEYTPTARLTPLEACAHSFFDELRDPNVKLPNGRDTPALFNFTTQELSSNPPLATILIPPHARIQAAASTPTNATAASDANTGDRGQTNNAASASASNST
T4 sequence (P50750 whole entry): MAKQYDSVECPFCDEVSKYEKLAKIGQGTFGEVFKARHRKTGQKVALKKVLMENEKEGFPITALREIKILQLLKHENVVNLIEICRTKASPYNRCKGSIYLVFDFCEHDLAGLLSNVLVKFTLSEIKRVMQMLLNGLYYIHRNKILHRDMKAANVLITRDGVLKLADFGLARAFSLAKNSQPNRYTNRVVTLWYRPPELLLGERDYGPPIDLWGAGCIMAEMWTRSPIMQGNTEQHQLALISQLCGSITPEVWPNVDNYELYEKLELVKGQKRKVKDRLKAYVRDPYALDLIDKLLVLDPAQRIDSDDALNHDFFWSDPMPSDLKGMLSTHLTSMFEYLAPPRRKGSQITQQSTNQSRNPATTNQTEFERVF
T4 sequence (O60563 whole entry partner): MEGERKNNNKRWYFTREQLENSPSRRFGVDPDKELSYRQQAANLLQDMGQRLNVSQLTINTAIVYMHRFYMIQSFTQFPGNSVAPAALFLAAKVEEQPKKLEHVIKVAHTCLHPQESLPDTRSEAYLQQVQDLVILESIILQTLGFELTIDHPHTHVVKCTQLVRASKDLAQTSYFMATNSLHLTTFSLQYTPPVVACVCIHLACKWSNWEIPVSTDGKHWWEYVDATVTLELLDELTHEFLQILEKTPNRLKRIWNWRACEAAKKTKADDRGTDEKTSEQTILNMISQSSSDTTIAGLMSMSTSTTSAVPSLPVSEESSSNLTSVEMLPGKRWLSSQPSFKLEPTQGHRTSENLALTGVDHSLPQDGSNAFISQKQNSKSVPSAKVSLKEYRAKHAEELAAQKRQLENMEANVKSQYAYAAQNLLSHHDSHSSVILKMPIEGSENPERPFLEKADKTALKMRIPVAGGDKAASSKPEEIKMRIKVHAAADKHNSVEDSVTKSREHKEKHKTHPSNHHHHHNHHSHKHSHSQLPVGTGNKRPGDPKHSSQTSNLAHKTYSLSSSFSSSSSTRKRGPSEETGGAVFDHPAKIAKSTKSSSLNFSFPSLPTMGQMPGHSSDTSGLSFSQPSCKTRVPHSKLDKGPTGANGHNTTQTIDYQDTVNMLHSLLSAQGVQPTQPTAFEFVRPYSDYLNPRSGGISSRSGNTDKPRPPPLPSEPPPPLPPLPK
T3 sequence (Q00535 whole entry): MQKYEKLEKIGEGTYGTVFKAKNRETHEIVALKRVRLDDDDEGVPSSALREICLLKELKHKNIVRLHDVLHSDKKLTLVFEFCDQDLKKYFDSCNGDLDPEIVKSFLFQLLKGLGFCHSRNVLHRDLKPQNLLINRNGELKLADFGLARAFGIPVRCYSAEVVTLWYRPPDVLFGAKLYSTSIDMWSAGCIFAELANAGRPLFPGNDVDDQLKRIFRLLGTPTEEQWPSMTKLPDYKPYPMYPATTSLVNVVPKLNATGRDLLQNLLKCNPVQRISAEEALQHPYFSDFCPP
T3 sequence (Q15078 99-307 partner limits assumed): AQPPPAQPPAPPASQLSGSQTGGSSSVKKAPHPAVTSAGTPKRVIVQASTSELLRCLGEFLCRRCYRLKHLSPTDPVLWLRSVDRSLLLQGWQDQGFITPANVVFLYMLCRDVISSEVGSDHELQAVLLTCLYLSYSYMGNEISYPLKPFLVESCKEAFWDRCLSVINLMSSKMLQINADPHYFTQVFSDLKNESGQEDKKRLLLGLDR
T8 sequence (P49674 whole entry): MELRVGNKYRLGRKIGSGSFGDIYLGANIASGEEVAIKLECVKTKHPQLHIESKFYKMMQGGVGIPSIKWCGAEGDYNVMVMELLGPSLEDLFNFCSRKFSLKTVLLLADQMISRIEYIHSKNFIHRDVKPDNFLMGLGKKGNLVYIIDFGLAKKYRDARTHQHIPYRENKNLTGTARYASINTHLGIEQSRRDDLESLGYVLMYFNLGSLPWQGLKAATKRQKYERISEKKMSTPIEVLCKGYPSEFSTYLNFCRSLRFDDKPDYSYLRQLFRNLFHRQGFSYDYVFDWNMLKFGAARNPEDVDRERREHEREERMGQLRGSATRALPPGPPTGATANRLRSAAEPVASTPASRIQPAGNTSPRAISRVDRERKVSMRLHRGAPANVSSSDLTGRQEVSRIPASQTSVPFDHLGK
T7 sequence (P11309 whole entry): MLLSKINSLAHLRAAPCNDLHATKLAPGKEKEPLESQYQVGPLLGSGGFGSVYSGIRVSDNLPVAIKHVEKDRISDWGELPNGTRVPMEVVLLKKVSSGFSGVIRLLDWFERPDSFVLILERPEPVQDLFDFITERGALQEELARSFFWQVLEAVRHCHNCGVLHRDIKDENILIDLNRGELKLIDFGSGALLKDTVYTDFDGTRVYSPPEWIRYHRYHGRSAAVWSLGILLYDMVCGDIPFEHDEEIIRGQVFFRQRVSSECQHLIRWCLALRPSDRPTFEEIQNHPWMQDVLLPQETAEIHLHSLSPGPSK
T9 sequence (P22518 whole entry): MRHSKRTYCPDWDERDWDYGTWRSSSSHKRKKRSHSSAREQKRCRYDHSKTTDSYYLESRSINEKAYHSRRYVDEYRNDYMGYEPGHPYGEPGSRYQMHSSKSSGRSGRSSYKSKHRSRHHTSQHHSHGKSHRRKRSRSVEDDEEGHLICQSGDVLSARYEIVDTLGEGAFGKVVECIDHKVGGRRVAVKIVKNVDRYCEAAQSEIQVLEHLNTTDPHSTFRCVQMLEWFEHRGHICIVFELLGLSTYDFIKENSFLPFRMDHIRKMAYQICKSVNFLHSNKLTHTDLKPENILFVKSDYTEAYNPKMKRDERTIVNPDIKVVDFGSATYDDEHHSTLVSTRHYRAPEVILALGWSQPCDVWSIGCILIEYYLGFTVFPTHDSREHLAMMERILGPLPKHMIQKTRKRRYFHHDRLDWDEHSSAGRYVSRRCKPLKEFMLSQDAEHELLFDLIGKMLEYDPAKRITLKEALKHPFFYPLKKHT
T1 sequence (P49759 whole entry): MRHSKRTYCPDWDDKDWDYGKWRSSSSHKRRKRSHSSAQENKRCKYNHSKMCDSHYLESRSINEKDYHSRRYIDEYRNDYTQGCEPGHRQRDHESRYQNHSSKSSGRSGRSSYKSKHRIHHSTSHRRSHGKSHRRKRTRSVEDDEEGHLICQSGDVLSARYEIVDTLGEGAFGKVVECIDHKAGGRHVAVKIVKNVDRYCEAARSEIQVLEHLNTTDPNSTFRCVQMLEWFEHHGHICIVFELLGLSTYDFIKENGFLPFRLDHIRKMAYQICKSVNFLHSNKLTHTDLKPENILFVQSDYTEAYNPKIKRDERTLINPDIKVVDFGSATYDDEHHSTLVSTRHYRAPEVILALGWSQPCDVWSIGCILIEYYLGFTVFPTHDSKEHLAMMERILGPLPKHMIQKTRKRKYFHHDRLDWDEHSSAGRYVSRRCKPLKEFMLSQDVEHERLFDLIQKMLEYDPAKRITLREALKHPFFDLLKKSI

| SMILES | IC50 at 48 h [1] [nM] | IC50 (HsCLK1; [4]) | remaining activity at 1 µM (Hs_HASPIN) [%] | remaining activity at 10 µM (Hs_HASPIN) [%] | remaining activity at 1 µM (Hs_CDK5/p25) [%] | remaining activity at 10 µM (Hs_CDK5/p25) [%] | remaining activity at 1 µM (Hs_CDK9/CyclinT) [%] | remaining activity at 10 µM (Hs_CDK9/CyclinT) [%] | IC50 at 48 h [2] [nM] | remaining activity at 1 µM (Hs_GSK3β) [%] | remaining activity at 10 µM (Hs_GSK3β) [%] | remaining activity at 1 µM (Rn_DYRK1A) [%] | remaining activity at 10 µM (Rn_DYRK1A) [%] | remaining activity at 1 µM (Hs_PIM1) [%] | remaining activity at 10 µM (Hs_PIM1) [%] | remaining activity at 1 µM (Hs_CK1ε) [%] | remaining activity at 10 µM (Hs_CK1ε) [%] | remaining activity at 1 µM (MmCLK1) [%] | remaining activity at 10 µM (MmCLK1) [%] | IC50 (MmCLK1; [5]) [nM] | also measured |
| --- | --- | --- | --- | --- | --- | --- | --- | --- | --- | --- | --- | --- | --- | --- | --- | --- | --- | --- | --- | --- | --- |
| O=C(O)c1ccc(-n2cc(COc3cccc4cnc(Nc5cccc(Cl)c5)nc34)nn2)c([N+](=O)[O-])c1 [12g, 4-(4-(((2-((3-Chlorophenyl)amino)quinazolin-8-yl)oxy)methyl)-1H-1,2,3-triazol-1-yl)-3-nitrobenzoic acid] | > 25000 | 4 nM | 75 | 69 | 45 | 97 | 38 | 21 | > 25000 | 76 | 19 | 61 | 39 | 66 | 31 | 98 | 72 | 13 | 5 | 24 | IC50 at 48 h [3, 6]: > 25000 nM; IC50 at 48 h [3, 7]: > 25000 nM; remaining activity at 1 µM (HsDYRK1A): 86%; IC50 (HsDYRK1A): 3940 nM; remaining activity at 10 µM (HsDYRK1A): 50% |
| COC(=O)c1ccc(-n2cc(COc3cccc4cnc(Nc5cccc(Cl)c5)nc34)nn2)c([N+](=O)[O-])c1 [12f, Methyl 4-(4-(((2-((3-chlorophenyl)amino)quinazolin-8-yl)oxy)methyl)-1H-1,2,3-triazol-1-yl)-3-nitrobenzoate] | > 25000 | 293 nM | 73 | 76 | ≥ 100 | 61 | 73 | 45 | > 25000 | 99 | 69 | ≥ 100 | 83 | 73 | 66 | ≥ 100 | 95 | 28 | 18 | 245 | IC50 at 48 h [3, 6]: > 25000 nM; IC50 at 48 h [3, 7]: > 25000 nM; remaining activity at 1 µM (HsDYRK1A): ≥ 100%; remaining activity at 10 µM (HsDYRK1A): 93% |
| O=[N+]([O-])c1cc(CO)ccc1-n1cc(COc2cccc3cnc(Nc4cccc(Cl)c4)nc23)nn1 [12e, 4-(4-(((2-((3-Chlorophenyl)amino)quinazolin-8-yl)oxy)methyl)-1H-1,2,3-triazol-1-yl)-3-nitrobenzyl alcohol] | 3000 | 146 nM | 92 | 88 | ≥ 100 | 54 | 74 | 21 | 7000 | 99 | 35 | 80 | 34 | 96 | 69 | ≥ 100 | 52 | 74 | 35 | 191 | IC50 (HsCLK1; read-out: IC50 human CLK1): 150 to 200 nM; IC50 at 48 h [3, 6]: 3000 nM; IC50 at 48 h [3, 7]: 4000 nM; remaining activity at 1 µM (HsDYRK1A): 84%; IC50 (HsDYRK1A): 2300 nM and 2330 nM; remaining activity at 10 µM (HsDYRK1A): 31% |
| Cc1ccc(-n2cc(COc3cccc4cnc(Nc5cccc(Cl)c5)nc34)nn2)c([N+](=O)[O-])c1 [DB18] | – | – | – | – | – | – | – | – | – | – | – | – | – | – | – | – | – | – | – | – | IC50 (MmCLK1): 120 nM |
| Cc1ccc(-n2cc(COc3cccc4cnc(Nc5cc(Cl)cc(Cl)c5)nc34)nn2)c([N+](=O)[O-])c1 [7b, N-(3,5-dichlorophenyl)-8-((1-(4-methyl-2-nitrophenyl)-1H-1,2,3-triazol-4-yl)methoxy)quinazolin-2-amine] | > 25000 | 85 nM | 81 | 46 | 93 | 68 | 80 | 34 | > 25000 | 85 | 36 | 87 | 95 | 87 | 84 | 81 | 47 | 14 | 17 | 280 to 369 | IC50 at 48 h [3, 6]: > 25000 nM; IC50 at 48 h [3, 7]: > 25000 nM; activity on the human DYRK1A (HsDYRK1A): completely inactive; remaining activity at 1 µM (HsDYRK1A): ≥ 100%; IC50 (HsDYRK1A): > 100000 nM; remaining activity at 10 µM (HsDYRK1A): 80% |
| O=[N+]([O-])c1cc(Br)ccc1-n1cc(COc2cccc3cnc(Nc4cccc(Cl)c4)nc23)nn1 [12d, N-(3-Chlorophenyl)-8-((1-(4-bromo-2-nitrophenyl)-1H-1,2,3-triazol-4-yl)methoxy)quinazolin-2-amine] | 2000 | 200 to 300 nM and 378 nM | 91 | 95 | ≥ 100 | ≥ 100 | 85 | 43 | > 25000 | ≥ 100 | 75 | ≥ 100 | 76 | 85 | 70 | ≥ 100 | 90 | 27 | 22 | 391 | IC50 at 48 h [3, 6]: > 25000 nM; IC50 at 48 h [3, 7]: > 25000 nM; remaining activity at 1 µM (HsDYRK1A): ≥ 100%; remaining activity at 10 µM (HsDYRK1A): 77% |
| N[C@H]1CC[C@@H](n2cc(COc3cccc4cnc(Nc5cc(Cl)cc(Cl)c5)nc34)nn2)CC1 [16b, 8-((1-((cis)-4-Aminocyclohexyl)-1H-1,2,3-triazol-4-yl)methoxy)-N-(3,5-dichlorophenyl)quinazolin-2-amine hydrochloride] | 2000 | 53 nM | 76 | 76 | 87 | 44 | 61 | 18 | 3000 | 47 | 8 | 71 | 20 | 69 | 15 | 82 | 24 | 19 | 8 | 180 | IC50 at 48 h [3, 6]: 2400 nM; IC50 at 48 h [3, 7]: 1000 nM; remaining activity at 1 µM (HsDYRK1A): 85%; IC50 (HsDYRK1A): 1900 nM; remaining activity at 10 µM (HsDYRK1A): 38% |
